Results reported in paper PMC5036617 (Toxicological Sciences, 2016).
Read-outs that look alike come from different tables or passages of the source.

Tests used:
[1] = test system: mitochondrial respiratory complex II; experiment: In situ respiratory complex assay in permeabilized cells, complex II; type: cell-based; settings: uncoupled, permeabilized HepG2 cells, 10–250 µM
[2] = cited from earlier work; for half-life: after flutamide administration, ref Kostrubsky et al., 2007; for Cmax: plasma, ref Schulz et al., 1988, read-out: maximum plasma concentration (Cmax)
Complex V (ATP synthase) = experiment: Complex V assay in permeabilized cells; type: cell-based; settings: permeabilized HepG2 cells, OCR change coupled vs uncoupled cells, 10–250 µM
Procedure: The assay consisted of a basal OCR measurement of 2 cycles of mix (30 s), wait (30 s), and measure (2 min) followed by MAS or FCCP injection (0.5 µM) and 2 measurement cycles. MAS-injected cells remain coupled whereas FCCP-injected cells become uncoupled meaning Complex V (ATP synthase) inhibition should not result in a change in OCR. […] FIG. 4 Representative complex V assay trace. Complex V assays consisted of cells in a solution containing substrates for complex IV before a series of compound injections into the cell culture microplate. FCCP (OXPHOS uncoupler) (Trace A) or MAS buffer (Traces B and C) was first injected, followed by 2 cycles of measurements. Flutamide, 2-hydroxyflutamide, oligomycin (positive control), or vehicle control was then injected into both the uncoupled (FCCP-treated) and coupled (MAS-treated) cells. […] Each measurement cycle was a total of 3 min. Following completion of OCR assays, medium was removed from all wells and 20 µl of somatic cell ATP releasing agent was added to each well before shaking for 1 min and transfer of 10 µl of lysate to a 96-well plate and performance of a BCA assay according to the manufacturer’s instructions. Protein content per well was used to normalize OCR.

[3] = test system: mitochondrial respiratory complex III; experiment: Complex III-linked respiration assay in permeabilized cells; type: cell-based; settings: permeabilized HepG2 cells, complex III-stimulated maximal respiration, 10–250 µM
Procedure: (§1) Culture medium was replaced with MAS buffer containing constituents to stimulate oxygen consumption via complex I (as previously without FCCP), complex II (ADP; 4.6 mM, succinate; 20 mM, rotenone; 1 µM, BSA; 0.2% w/v, PMP; 1 nM), or complex III (ADP; 4.6 mM, duroquinol; 500 μM, rotenone; 1 μM, malonic acid; 40 μM, BSA; 0.2% w/v, PMP; 1 nM) dependent on the respiratory complex of interest. […] Changes in complex II activity were also assessed at lower compound concentrations; 2–30 μM (Supplementary Figure S1). Complex I, II, and III activity were defined by the change in complex I, II, or III-stimulated maximal respiration respectively compared with vehicle control.
(§2) Following completion of OCR assays, medium was removed from all wells and 20 µl of somatic cell ATP releasing agent was added to each well before shaking for 1 min and transfer of 10 µl of lysate to a 96-well plate and performance of a BCA assay according to the manufacturer’s instructions. Protein content per well was used to normalize OCR.

bile salt export pump = test system: bile salt export pump; parameters: method as in Kostrubsky et al., 2007; settings: via bile salt export pump inhibition; ref Kostrubsky et al., 2007; read-out: IC50 inhibition of taurocholate efflux; cited from earlier work
[4] = test system: mitochondrial respiratory complex I; experiment: In situ respiratory complex assay in permeabilized cells, complex I; type: cell-based; settings: uncoupled, permeabilized HepG2 cells, 10–250 µM
[5] = test system: mitochondrial respiratory complex IV; experiment: In situ respiratory complex assay in permeabilized cells, complex IV; type: cell-based; settings: uncoupled, permeabilized HepG2 cells, 10–250 µM
HepG2 cells [6] = experiment: Assessment of superoxide level (mitoSOX red); type: cell-based; settings: 2 h; for concentration significantly increasing cellular superoxide: HepG2 cells, glucose medium, 15–500 µM; for superoxide level in galactose media: acutely galactose-conditioned HepG2 cells, up to 500 µM
Procedure: HepG2 cells were collected by trypsinization and seeded on a 24-well plate (150 000 cells/500 µl/well) and incubated overnight in glucose medium (37°C, 5% CO2). […] Protein content per well was determined using a BCA assay (as described earlier) and was used to normalize superoxide levels.

[7] = test system: mitochondrial respiratory complex II; experiment: Complex II-linked respiration assay in permeabilized cells; type: cell-based; settings: permeabilized HepG2 cells; for complex II activity: complex II-stimulated maximal respiration vs vehicle control, 10–250 µM
Procedure: as §1, §2

[8] = test system: mitochondrial respiratory complex I; experiment: Complex I-linked respiration assay in permeabilized cells; type: cell-based; settings: for concentration inducing a significant reduction in complex I activity: permeabilized HepG2 cells, complex I-stimulated maximal respiration vs vehicle control, 10–250 µM
Procedure: as §1, §2

HepG2 cells [9] = experiment: Assessment of NAD+/NADH ratio; type: cell-based; settings: 2 h, glucose medium, 30–500 µM
Procedure: HepG2 cells were collected by trypsinization and seeded on a 24-well plate (450 000 cells/500 µl/well) and incubated overnight in glucose medium (37 °C, 5% CO2). […] NAD^+ and NADH concentrations were measured in lysates using a NAD^+/NADH ratio assay kit according to the manufacturer’s instructions.

HepG2 cells [10] = experiment: Cellular ATP content of HepG2 cells in glucose or galactose medium (ATP bioluminescent assay); type: cell-based; settings: 2 h; for EC50ATPglu/EC50ATPgal: ratio ≥ 2 identifies a mitochondrial liability; for decrease in ATP content in galactose medium compared with glucose medium: up to 300 µM; for EC50: Homo sapiens, concentration reducing cellular ATP content by 50%
Procedure: Metabolic switching of cells was performed based on work previously described by ([[…] et al., 2015]). Briefly, 24 h prior to metabolic switch, HepG2 cells were collected by trypsinization and seeded on a collagen-coated flat-bottomed 96-well plate (20 000 cells/50 μl/well) and incubated (37°C, 5% CO2) overnight. […] Flutamide, 2-hydroxyflutamide and bicalutamide stock solutions were prepared in DMSO and diluted further in the appropriate medium. Compounds (50 μl) were then added to each well and cells were incubated for 2 h (37 °C, 5% CO2). All assays used ≤ 0.5% DMSO as a vehicle control. […] LDH content of the cells and supernatant was assessed using a cytotoxicity detection kit according to the manufacturer's instructions. ATP content was assessed using an ATP bioluminescent assay according to the manufacturer's instructions. Briefly, 10 μl of cell lysate or ATP standard curve solutions were added to a white-walled 96-well plate before addition of 40 μl ATP assay mix. Protein content of all wells was then assessed using a BCA assay applied to 10 μl of cell lysate and standards. LDH (490 nm), BCA (570 nm), and ATP assay luminescence were then measured using a plate reader (Varioskan, Thermo Scientific). ATP content readings were normalized to protein content. Experiments were conducted in a minimum of triplicate to ensure the reliability of single values. EC50 data were determined by nonlinear regression analysis using GraphPad Prism 5.0. Normality was assessed using a Shapiro-Wilk statistical test. Statistical significance was determined by an unpaired t-test for parametric data and a Mann-Whitney U test for non-parametric data using StatsDirect 2.7.9. P < .05 was taken as showing a significant difference.

[11] = galactose medium, read-out: EC50ATP (μM) Galactose
[12] = glucose medium, read-out: EC50ATP (μM) Glucose

Row | SMILES | complex II activity (response to succinate) [1] | half-life [2] [h] | complex III activity [3] | IC50 (bile salt export pump) [µM] | complex I activity (response to rotenone) [4] | complex IV activity [5] | concentration significantly increasing cellular superoxide (HepG2 cells [6]) [µM] | superoxide level in galactose media (HepG2 cells [6]) | complex II activity [7] | concentration inducing a significant reduction in complex I activity [8] [µM] | NAD+/NADH ratio (HepG2 cells [9]) | concentration significantly decreasing NAD+/NADH ratio (HepG2 cells [9]) [µM] | decrease in ATP content in galactose medium compared with glucose medium (HepG2 cells [10]) | EC50 (HepG2 cells [10]; [11]) [µM] | EC50 (HepG2 cells [10]; [12]) [µM] | also measured
1 | CC(C)C(=O)Nc1ccc([N+](=O)[O-])c(C(F)(F)F)c1 [Flutamide] | Only 2-hydroxyflutamide induced a significantly reduced response | 7.8 | no significant inhibition | 75 | significant reduction in complex I activity | Neither compound appeared to have a significant impact | ≥ 30 | significant increase | only 2-hydroxyflutamide and not flutamide induced a significant reduction | ≥ 30 | significantly decreased | ≥ 100 | significantly more in the galactose medium | 43.9 | 255 | Cmax ([2]; single 250 mg dose of flutamide): 72.2 nM; parent drug as share of detectable compound in the plasma following administration ([2]; ref Radwanski et al., 1989): 2.5%; complex V activity (Complex V (ATP synthase)): this was not the case for flutamide; OCR upon compound injection, complex I assay ([8]; permeabilised HepG2 cells, up to 250 µM): immediate concentration-dependent reduction in OCR; EC50ATPglu/EC50ATPgal (HepG2 cells [10]): 5.82 (0.03); EC50ATPglu/EC50ATPgal (HepG2 cells [10]; listed as flutamide): ≥ 2
2 | CC(C)(O)C(=O)Nc1ccc([N+](=O)[O-])c(C(F)(F)F)c1 [2-hydroxyflutamide] | significantly reduced response | 9.6 | no significant inhibition | 110 | significant reduction in complex I activity | Neither compound appeared to have a significant impact | ≥ 30 | significant increase | significant reduction | ≥ 30 | significantly decreased | ≥ 100 | significantly more in the galactose medium | 48.5 | 267 | Cmax ([2]; metabolite after single 250 mg dose of flutamide): 4400 nM; concentration inducing a significant reduction in complex V activity (Complex V (ATP synthase)): ≥ 125 µM; concentration inducing a significant decline in complex II activity ([7]; complex II-stimulated maximal respiration, 2–30 and 10–250 µM): ≥ 10 µM
